Experiments:
corn = test: Test E postemergence; format: in vivo, Zea mays
Text: (§1) Seeds of plant species selected from corn (Zea mays), soybean (Glycine max), velvetleaf (Abutilon theophrasti), lambsquarters (Chenopodium album), wild poinsettia (Euphorbia heterophylla), palmer pigweed (Amaranthus palmeri), waterhemp (common waterhemp, Amaranthus rudis), surinam grass (Brachiaria decumbens), large (Lg) crabgrass (Digitaria sanguinalis), Brazilian crabgrass (Digitaria horizontalis), fall panicum (Panicum dichotomiflorum), giant foxtail (Setaria faberii), green foxtail (Setaria viridis), goosegrass (Eleusine indica), johnsongrass (Sorghum halepense), ragweed (common ragweed, Ambrosia elatior), barnyardgrass (Echinochloa crus-galli), sandbur (southern sandbur, Cenchrus echinatus), arrowleaf sida (Sida rhombifolia), Italian ryegrass (Lolium multiflorum), dayflower (Virginia (VA) dayflower, Commelina virginica), field bindweed (Convolvulus arvensis), morningglory (Ipomoea coccinea), nightshade (eastern black nightshade, Solanum ptycanthum), kochia (Kochia scoparia), yellow nutsedge (Cyperus esculentus), cocklebur (common cocklebur, Xanthium strumarium), smartweed (ladysthumb smartweed, and hairy beggarticks (Bidens pilosa), were planted into a silt loam soil and treated preemergence with test chemicals formulated in a non-phytotoxic solvent mixture which included a surfactant.
(§2) At the same time, plants from these crop and weed species and also horseweed (Canada horseweed, Conyza canadensis), waterhemp_RES1, (ALS & Triazine resistant common waterhemp, Amaranthus rudis), and waterhemp_RES2, (ALS & HPPD resistant common waterhemp, Amaranthus rudis) were planted in pots containing Redi-Earth® planting medium (Scotts Company, 14111 Scottslawn Road, Marysville, Ohio 43041) comprising spaghnum peat moss, vermiculite, wetting agent and starter nutrients were treated with postemergence applications of test chemicals formulated in the same manner. Plants ranged in height from 2 to 18 cm for postemergence treatments (1- to 4-leaf stage). Treated plants and controls were maintained in a greenhouse for 14 to 21 days, after which time all species were compared to controls and visually evaluated. Plant response ratings, summarized in Table E, are based on a scale of 0 to 100 where 0 is no effect and 100 is complete control. A dash (-) response means no test result.

palmer pigweed = test: Test E postemergence; format: in vivo, Amaranthus palmeri
Procedure, shortened: (§3)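 Response was scored visually on a 0-100 scale (100 = complete control) versus controls after 14 to 21 days in the greenhouse. Test chemicals, formulated with surfactant in a non-phytotoxic solvent mixture, had been applied preemergence to seeds in silt loam soil or postemergence to 1- to 4-leaf plants in potting medium.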

Brazilian crabgrass = test: Test E postemergence; format: in vivo, Digitaria horizontalis
Procedure, shortened: as §3

barnyardgrass = test: Test E postemergence; format: in vivo, Echinochloa crus-galli
Text: as §1, §2

Italian ryegrass = test: Test E postemergence; format: in vivo, Lolium multiflorum
Text: as §1, §2

sedge, umbrella = test: Test C flooded paddy test; format: in vivo, Cyperus difformis; conditions: Flood, scale 0 to 100 (0 no effect, 100 complete control), 13 to 15 days
Procedure, shortened: (§4)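 Compound was added to standing water 3 cm above soil, flood maintained, and plants held in a greenhouse before visual scoring against controls at 13 to 15 days.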

ducksalad = test: Test C flooded paddy test; format: in vivo, Heteranthera limosa; conditions: Flood, scale 0 to 100 (0 no effect, 100 complete control), 13 to 15 days
Procedure, shortened: as §4

[1] = Postemergence, 31 g ai/ha, scale 0 to 100
[2] = Postemergence, 62 g ai/ha, scale 0 to 100
[3] = Postemergence, 125 g ai/ha, scale 0 to 100
[4] = postemergence, 16 g ai/ha, scale 0 to 100, 0 no effect, 100 complete control
[5] = postemergence, 8 g ai/ha, scale 0 to 100, 0 no effect, 100 complete control

| Compound | Plant response rating, Corn (corn; [1]) | Plant response rating, Corn (corn; [2]) | Plant response rating, Corn (corn; [3]) | Plant response rating, Corn (corn; [4]) | Plant response rating, Pigweed, Palmer (palmer pigweed; [1]) | Plant response rating, Pigweed, Palmer (palmer pigweed; [2]) | Plant response rating, Pigweed, Palmer (palmer pigweed; [3]) | Plant response rating, Pigweed, Palmer (palmer pigweed; [4]) | Plant response rating, Crabgrass, Brazil (Brazilian crabgrass; [1]) | Plant response rating, Crabgrass, Brazil (Brazilian crabgrass; [2]) | Plant response rating, Crabgrass, Brazil (Brazilian crabgrass; [3]) | Plant response rating, Crabgrass, Brazil (Brazilian crabgrass; [4]) | Plant response rating, Barnyardgrass (barnyardgrass; [1]) | Plant response rating, Barnyardgrass (barnyardgrass; [2]) | Plant response rating, Barnyardgrass (barnyardgrass; [3]) | Plant response rating, Barnyardgrass (barnyardgrass; [4]) | Plant response rating, Ryegrass, Italian (Italian ryegrass; [1]) | Plant response rating, Ryegrass, Italian (Italian ryegrass; [2]) | Plant response rating, Ryegrass, Italian (Italian ryegrass; [3]) | Plant response rating, Ryegrass, Italian (Italian ryegrass; [4]) | also measured |
| --- | --- | --- | --- | --- | --- | --- | --- | --- | --- | --- | --- | --- | --- | --- | --- | --- | --- | --- | --- | --- | --- |
| Clc1cnc(Oc2cccc(Cl)c2-n2cc(I)cn2)nc1 [Compound 181] | 5 | 15 | 15 | 5 | 70 | 90 | 98 | 80 | 20 | 30 | 30 | 20 | 20 | 15 | 25 | 10 | 5 | 10 | 20 | 5 |  |
| N#Cc1cccc(Oc2ncc(F)cn2)c1-n1cc(C(F)(F)F)cn1 [Compound 79, 3-[(5-fluoro-2-pyrimidinyl)oxy]-2-[4-(trifluoromethyl)-1H-pyrazol-1-yl]benzonitrile] |  |  |  |  |  |  |  |  |  |  |  |  |  |  |  |  |  |  |  |  | corn plant response (injury) rating, 0-100 at 31 g/ha (corn; Zea mays, post-emergence, Postemergence, 31 g ai/ha, scale 0 to 100): 0%; corn plant response (injury) rating, 0-100 at 62 g/ha (corn; Zea mays, post-emergence, Postemergence, 62 g ai/ha, scale 0 to 100): 10%; corn plant response (injury) rating, 0-100 at 125 g/ha (corn; Zea mays, post-emergence, Postemergence, 125 g ai/ha, scale 0 to 100): 15%; corn plant response (injury) rating, 0-100 at 16 g/ha (corn; Zea mays, post-emergence, postemergence, 16 g ai/ha, scale 0 to 100, 0 no effect, 100 complete control): 0%; pest or weed control at 31 g/ha (palmer pigweed; post-emergence, Postemergence, 31 g ai/ha, scale 0 to 100, read-out: Plant response rating, Pigweed, Palmer): 50%; pest or weed control at 62 g/ha (palmer pigweed; post-emergence, Postemergence, 62 g ai/ha, scale 0 to 100, read-out: Plant response rating, Pigweed, Palmer): 95%; pest or weed control at 125 g/ha (palmer pigweed; post-emergence, Postemergence, 125 g ai/ha, scale 0 to 100, read-out: Plant response rating, Pigweed, Palmer): 90%; pest or weed control at 16 g/ha (palmer pigweed; post-emergence, postemergence, 16 g ai/ha, scale 0 to 100, 0 no effect, 100 complete control, read-out: Plant response rating, Pigweed, Palmer): 50%; pest or weed control at 31 g/ha (Brazilian crabgrass; Digitaria horizontalis, post-emergence, Postemergence, 31 g ai/ha, scale 0 to 100, read-out: Plant response rating, Crabgrass, Brazil): 10%; pest or weed control at 62 g/ha (Brazilian crabgrass; Digitaria horizontalis, post-emergence, Postemergence, 62 g ai/ha, scale 0 to 100, read-out: Plant response rating, Crabgrass, Brazil): 20%; pest or weed control at 125 g/ha (Brazilian crabgrass; Digitaria horizontalis, post-emergence, Postemergence, 125 g ai/ha, scale 0 to 100, read-out: Plant response rating, Crabgrass, Brazil): 30%; pest or weed control at 16 g/ha (Brazilian crabgrass; Digitaria horizontalis, post-emergence, postemergence, 16 g ai/ha, scale 0 to 100, 0 no effect, 100 complete control, read-out: Plant response rating, Crabgrass, Brazil): 0%; pest or weed control at 31 g/ha (barnyardgrass; Echinochloa crus-galli, post-emergence, Postemergence, 31 g ai/ha, scale 0 to 100, read-out: Plant response rating, Barnyardgrass): 0%; pest or weed control at 62 g/ha (barnyardgrass; Echinochloa crus-galli, post-emergence, Postemergence, 62 g ai/ha, scale 0 to 100, read-out: Plant response rating, Barnyardgrass): 10%; pest or weed control at 125 g/ha (barnyardgrass; Echinochloa crus-galli, post-emergence, Postemergence, 125 g ai/ha, scale 0 to 100, read-out: Plant response rating, Barnyardgrass): 20%; pest or weed control at 16 g/ha (barnyardgrass; Echinochloa crus-galli, post-emergence, postemergence, 16 g ai/ha, scale 0 to 100, 0 no effect, 100 complete control, read-out: Plant response rating, Barnyardgrass): 0%; pest or weed control at 62 g/ha (Italian ryegrass; Lolium multiflorum, post-emergence, Postemergence, 62 g ai/ha, scale 0 to 100, read-out: Plant response rating, Ryegrass, Italian): 0%; pest or weed control at 125 g/ha (Italian ryegrass; Lolium multiflorum, post-emergence, Postemergence, 125 g ai/ha, scale 0 to 100, read-out: Plant response rating, Ryegrass, Italian): 0%; pest or weed control at 16 g/ha (Italian ryegrass; Lolium multiflorum, post-emergence, postemergence, 16 g ai/ha, scale 0 to 100, 0 no effect, 100 complete control, read-out: Plant response rating, Ryegrass, Italian): 0% |
| FC(F)(F)c1cnn(-c2c(Br)cccc2Oc2ncc(Cl)cn2)c1 [Compound 191] | 10 | 10 | 15 | 0 | 75 | 75 | 85 | 40 | 10 | 10 | 20 | 10 | 0 | 0 | 0 | 0 | 0 | 0 | 0 | 0 | Plant response rating, Sedge, Umbrella (sedge, umbrella; 31 g ai/ha): 40; Plant response rating, Sedge, Umbrella (sedge, umbrella; 62 g ai/ha): 60; Plant response rating, Sedge, Umbrella (sedge, umbrella; 125 g ai/ha): 85; Plant response rating, Sedge, Umbrella (sedge, umbrella; 250 g ai/ha): 98; Plant response rating, Ducksalad (ducksalad; 31 g ai/ha): 30; Plant response rating, Ducksalad (ducksalad; 62 g ai/ha): 50; Plant response rating, Ducksalad (ducksalad; 125 g ai/ha): 75; Plant response rating, Ducksalad (ducksalad; 250 g ai/ha): 80; Plant response rating, Corn (corn; [5]): 0; Plant response rating, Pigweed, Palmer (palmer pigweed; [5]): 20; Plant response rating, Crabgrass, Brazil (Brazilian crabgrass; [5]): 10; Plant response rating, Barnyardgrass (barnyardgrass; [5]): 0; Plant response rating, Ryegrass, Italian (Italian ryegrass; [5]): 0 |
| Clc1cnc(Oc2ccccc2-n2cc(Br)nn2)nc1 [Compound 223] | 0 | 0 | 5 | 0 | 50 | 60 | 85 | 25 | 10 | 10 | 20 | 0 | 0 | 0 | 0 | 0 | 0 | 0 | 0 | 0 | Plant response rating, Corn (corn; [5]): 0; Plant response rating, Pigweed, Palmer (palmer pigweed; [5]): 15; Plant response rating, Crabgrass, Brazil (Brazilian crabgrass; [5]): 0; Plant response rating, Barnyardgrass (barnyardgrass; [5]): 0; Plant response rating, Ryegrass, Italian (Italian ryegrass; [5]): 0 |
